This is an account of results in patent US10323038B2, “Pyrazole compounds and methods of making and using same” (ABIDE THERAPEUTICS, INC., priority 2015, dated 2019).

Where only a bound is given, the exact number is not on record here.

Experiment [1] addresses T1, MAGL (Mus musculus (Mouse), UniProt O35678). Nature of the experiment: In vitro competitive activity-based protein profiling, MAGL (mouse). In kind it is biochemical. To be noted: for inhibition at 1 µM: read-out: MAGL % inh. 1 μM (mouse). Summed up: (§1)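 Residual MAGL and FAAH activity quantified from fluorescent gel bands after SDS-PAGE. Before that, FP-Rh or HT-01 probe (50 μM stock) labelled for 30 min at 37 °C, following 30 min inhibitor preincubation. Mouse assays used brain membrane fraction or cell lysates, human used prefrontal cortex or cell membranes, all at 1.0 mg/mL protein.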

In experiment [2] the target is FAAH (Mus musculus (Mouse), UniProt O08914). Nature of the experiment: In vitro competitive activity-based protein profiling, FAAH (mouse). Type of experiment: biochemical. To be noted: for inhibition at 1 µM: read-out: FAAH % inh. 1 μM (mouse). A digest of the protocol:
as §1

Experiment [3] concerns the target T1, MAGL. Nature of the experiment: Mouse brain proteomes from inhibitor treated mice (oral gavage, 4 h), MAGL. Type of experiment: in vivo. To be noted: read-out: MAGL % inh. 5 mg/kg (mouse). Here is the method:
Preparation of Mouse Brain Proteomes from Inhibitor Treated Mice.
Inhibitors were administered to wild-type C57Bl/6J by oral gavage in a vehicle of polyethylene glycol. Each animal was sacrificed 4 h following administration and brain proteomes were prepared and analyzed according to previously established methods (See Niphakis, M. J., et al. (2011) ACS Chem. Neurosci. and Long, J. Z., et al. Nat. Chem. Biol. 5:37-44).

Experiment [4] concerns the target MAGL (Homo sapiens (Human), UniProt Q99685). Put plainly: In vitro competitive activity-based protein profiling, MAGL (human). Type of experiment: biochemical. To be noted: 10 μM, human proteome; read-out: MAGL % inh. 10 μM (human). On the procedure:
(§2) In Vitro Competitive Activity-Based Protein Profiling.
(§3) Proteomes (mouse brain membrane fraction or cell lysates for mouse assays; human prefrontal cortex or cell membrane fractions for human assays) (50 μL, 1.0 mg/mL total protein concentration) were preincubated with varying concentrations of inhibitors at 37° C. After 30 min, FP—Rh or HT-01 (1.0 μL, 50 μM in DMSO) was added and the mixture was incubated for another 30 min at 37° C. Reactions were quenched with SDS loading buffer (15 μL-4×) and run on SDS-PAGE. Following gel imaging, serine hydrolase activity was determined by measuring fluorescent intensity of gel bands corresponding to MAGL and FAAH using ImageJ 1.43u software.

The target in experiment [5] is FAAH (Homo sapiens (Human), UniProt O00519). Nature of the experiment: In vitro competitive activity-based protein profiling, FAAH (human). Type of experiment: biochemical. To be noted: 10 μM, human proteome; read-out: FAAH % inh. 10 μM (human). On the procedure:
as §2, §3

Chain of FAAH (Mus musculus (Mouse), UniProt O08914) (O08914 whole entry): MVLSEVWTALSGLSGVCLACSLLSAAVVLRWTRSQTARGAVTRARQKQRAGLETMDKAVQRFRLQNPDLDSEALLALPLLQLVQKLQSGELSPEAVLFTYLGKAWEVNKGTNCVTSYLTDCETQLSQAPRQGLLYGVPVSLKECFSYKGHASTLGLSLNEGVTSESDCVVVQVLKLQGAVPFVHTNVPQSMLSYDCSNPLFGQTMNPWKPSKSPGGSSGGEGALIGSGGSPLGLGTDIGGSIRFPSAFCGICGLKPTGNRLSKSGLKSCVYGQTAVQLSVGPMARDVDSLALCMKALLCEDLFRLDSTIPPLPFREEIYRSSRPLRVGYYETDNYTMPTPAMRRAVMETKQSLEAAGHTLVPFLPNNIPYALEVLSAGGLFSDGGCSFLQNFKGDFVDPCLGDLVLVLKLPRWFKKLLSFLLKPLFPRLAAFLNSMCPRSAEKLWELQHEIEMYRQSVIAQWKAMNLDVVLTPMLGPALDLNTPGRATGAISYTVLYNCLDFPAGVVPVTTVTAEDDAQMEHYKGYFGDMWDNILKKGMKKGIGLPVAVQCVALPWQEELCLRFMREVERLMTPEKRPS
T1 sequence (O35678 whole entry): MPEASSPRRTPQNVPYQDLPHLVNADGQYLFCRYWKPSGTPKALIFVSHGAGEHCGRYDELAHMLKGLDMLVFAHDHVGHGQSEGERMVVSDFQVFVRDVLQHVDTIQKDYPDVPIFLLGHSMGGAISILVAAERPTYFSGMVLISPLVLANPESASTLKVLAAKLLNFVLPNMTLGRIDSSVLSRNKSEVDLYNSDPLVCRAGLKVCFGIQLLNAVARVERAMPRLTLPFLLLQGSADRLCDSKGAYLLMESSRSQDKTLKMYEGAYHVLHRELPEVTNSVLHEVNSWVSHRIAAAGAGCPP
Chain of MAGL (Homo sapiens (Human), UniProt Q99685) (Q99685 whole entry): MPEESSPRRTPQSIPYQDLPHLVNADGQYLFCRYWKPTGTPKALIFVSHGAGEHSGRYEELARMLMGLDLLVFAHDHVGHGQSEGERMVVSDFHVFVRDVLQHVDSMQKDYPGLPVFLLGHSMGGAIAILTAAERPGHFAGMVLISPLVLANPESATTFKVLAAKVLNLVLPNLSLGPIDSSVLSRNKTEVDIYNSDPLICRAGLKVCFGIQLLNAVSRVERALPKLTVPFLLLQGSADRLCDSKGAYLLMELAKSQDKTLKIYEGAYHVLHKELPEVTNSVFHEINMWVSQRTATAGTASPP
Chain of FAAH (Homo sapiens (Human), UniProt O00519) (O00519 whole entry): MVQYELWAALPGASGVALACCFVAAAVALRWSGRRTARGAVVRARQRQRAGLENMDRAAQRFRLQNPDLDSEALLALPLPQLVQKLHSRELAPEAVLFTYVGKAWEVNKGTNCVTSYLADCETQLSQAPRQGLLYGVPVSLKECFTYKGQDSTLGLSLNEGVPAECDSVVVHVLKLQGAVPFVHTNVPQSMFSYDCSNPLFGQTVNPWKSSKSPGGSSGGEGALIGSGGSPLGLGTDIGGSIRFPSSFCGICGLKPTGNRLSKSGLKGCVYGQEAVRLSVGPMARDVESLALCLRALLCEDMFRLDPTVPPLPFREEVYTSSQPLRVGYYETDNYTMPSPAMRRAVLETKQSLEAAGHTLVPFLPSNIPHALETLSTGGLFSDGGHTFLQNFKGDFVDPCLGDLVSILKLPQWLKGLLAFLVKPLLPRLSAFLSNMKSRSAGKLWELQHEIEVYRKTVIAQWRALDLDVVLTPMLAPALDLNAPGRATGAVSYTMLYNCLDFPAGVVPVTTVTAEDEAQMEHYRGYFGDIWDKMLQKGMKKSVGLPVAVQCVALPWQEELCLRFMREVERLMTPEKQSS

On to `CC(=O)N(C)c1cnn(C(=O)N2CC3CN(Cc4ccccc4Cl)CC3C2)c1` (centres unmarked) [Example 9, N-(1-(5-(2-chlorobenzyl)octahydropyrrolo[3,4-c]pyrrole-2-carbonyl)-1H-pyrazol-4-yl)-N-methylacetamide], for which, in experiment [1], the IC50 is 100 to 1000 nM and the inhibition at 1 µM was no less than 75%. Also, in experiment [2], the 50% inhibitory concentration (IC50) is no more than 100 nM and the inhibition at 1 µM was no less than 75%. Besides, in experiment [3], the inhibition at 5 mg/kg lay within 50 to 75%.

`CC(=O)N(C)c1cnn(C(=O)N2CC3CN(Cc4ccc(Cl)cc4)CC3C2)c1` (centres unmarked) [Example 11, N-(1-(5-(4-chlorobenzyl)octahydropyrrolo[3,4-c]pyrrole-2-carbonyl)-1H-pyrazol-4-yl)-N-methylacetamide]: in experiment [1], the IC50 fell in the range of 100 to 1000 nM and the inhibition at 1 µM is no less than 75%. In experiment [2], the IC50 is no more than 100 nM and the inhibition at 1 µM is no less than 75%. Also, the inhibition at 5 mg/kg in experiment [3] was no less than 75%.

Consider `CC(=O)N(C)c1cnn(C(=O)N2CCC3(CCN(Cc4ccccc4Cl)C3)C2)c1` (centres unmarked) [Example 50, N-(1-(7-(2-chlorobenzyl)-2,7-diazaspiro[4.4]nonane-2-carbonyl)-1H-pyrazol-4-yl)-N-methylacetamide], for which, in experiment [1], the IC50 was 100 to 1000 nM and the inhibition at 1 µM was in the range of 50 to 75%. For the same compound, in experiment [2], the IC50 was no more than 100 nM and the inhibition at 1 µM is no less than 75%. The inhibition at 5 mg/kg in experiment [3] is no less than 75%.

As to `CC(=O)N(C)c1cnn(C(=O)N2CCC3(CCN(Cc4ccccc4C(F)(F)F)C3)C2)c1` (centres unmarked) [Example 58, N-methyl-N-(1-(7-(2-(trifluoromethyl)benzyl)-2,7-diazaspiro[4.4]nonane-2-carbonyl)-1H-pyrazol-4-yl)acetamide], in experiment [1], the concentration for half-maximal inhibition (IC50) was in the range of 100 to 1000 nM and the inhibition at 1 µM is no less than 75%. In experiment [2], the half-maximal inhibitory concentration (IC50) is no more than 100 nM and the inhibition at 1 µM was no less than 75%. Besides, the inhibition at 5 mg/kg in experiment [3] was no less than 75%.

Consider `CC(=O)N(C)c1cnn(C(=O)N2CCC3(CCN(Cc4cccc(F)c4)C3)C2)c1` (centres unmarked) [Example 79, N-(1-(7-(3-fluorobenzyl)-2,7-diazaspiro[4.4]nonane-2-carbonyl)-1H-pyrazol-4-yl)-N-methylacetamide], for which the inhibition at 10 µM in experiment [4] and in experiment [5] was no less than 75% each time. Besides, the figures for the inhibition at 1 µM in experiment [1] and in experiment [2] were 0 to 25% and no less than 75%, respectively.

As for `CC(=O)N(C)c1cnn(C(=O)N2CCC3(CCN(Cc4cccc(C)c4)C3)C2)c1` (centres unmarked) [Example 80, N-methyl-N-(1-(7-(3-methylbenzyl)-2,7-diazaspiro[4.4]nonane-2-carbonyl)-1H-pyrazol-4-yl)acetamide], the inhibition at 10 µM in experiment [4] and in experiment [5] was no less than 75% in each case. In addition, the inhibition at 1 µM in experiment [1] is 0 to 25%; in experiment [2] it was 50 to 75%.

With `COc1cccc(CN2CCC3(CCN(C(=O)n4cc(N(C)C(C)=O)cn4)C3)C2)c1` (centres unmarked) [Example 81, N-(1-(7-(3-methoxybenzyl)-2,7-diazaspiro[4.4]nonane-2-carbonyl)-1H-pyrazol-4-yl)-N-methylacetamide], the inhibition at 10 µM in experiment [4] and in experiment [5] was no less than 75% throughout. In addition, the inhibition at 1 µM is 0 to 25% in experiment [1] and 50 to 75% in experiment [2].

Consider `CC(=O)N(C)c1cnn(C(=O)N2CC3(CCN(Cc4ccccc4C(F)(F)F)CC3)C2)c1` [Example 90, N-methyl-N-(1-(7-(2-(trifluoromethyl)benzyl)-2,7-diazaspiro[3.5]nonane-2-carbonyl)-1H-pyrazol-4-yl)acetamide], for which the inhibition at 10 µM in experiment [4] is 25 to 50%; in experiment [5], no less than 75%. Also, the inhibition at 1 µM was 0 to 25% in experiment [1] and no less than 75% in experiment [2].

For `CC(=O)N(C)c1cnn(C(=O)N2C[C@H]3C[C@@H](NCc4cccc(Cl)c4)C[C@H]3C2)c1` [Example 134, N-(1-(cis-5-(3-chlorobenzylamino)octahydrocyclopenta[c]pyrrole-2-carbonyl)-1H-pyrazol-4-yl)-N-methylacetamide], the inhibition at 10 µM in experiment [4] and in experiment [5] was no less than 75% throughout. Besides, the inhibition at 1 µM in experiment [1] is 0 to 25%; in experiment [2], no less than 75%.

In the case of `CC(=O)N(C)c1cnn(C(=O)N2C[C@H]3C[C@H](N(C)Cc4ccc(Cl)cc4)C[C@H]3C2)c1` [Example 148, N-(1-(trans-5-((4-chlorobenzyl)(methyl)amino)octahydrocyclopenta[c]pyrrole-2-carbonyl)-1H-pyrazol-4-yl)-N-methylacetamide], in experiment [1], the IC50 is no more than 100 nM and the inhibition at 1 µM was no less than 75%. Besides, in experiment [2], the IC50 was no more than 100 nM and the inhibition at 1 µM is no less than 75%. Besides, the inhibition at 5 mg/kg in experiment [3] was no less than 75%.

As to `CC(=O)N(C)c1cnn(C(=O)N2C[C@H]3C[C@H](N(Cc4ccccc4Cl)C(C)=O)C[C@H]3C2)c1` [Example 172, N-(2-chlorobenzyl)-N-(trans-2-(4-(N-methylacetamido)-1H-pyrazole-1-carbonyl)octahydrocyclopenta[c]pyrrol-5-yl)acetamide], in experiment [1], the IC50 is no more than 100 nM and the inhibition at 1 µM is no less than 75%. Besides, in experiment [2], the half-inhibitory concentration (IC50) was 1000 to 10000 nM and the inhibition at 1 µM lay in the range of 0 to 25%. For the same compound, the inhibition at 5 mg/kg in experiment [3] was in the range of 0 to 25%.

With `COc1ccccc1CN1CC2CN(C(=O)n3cc(N(C)C(C)=O)cn3)CC2C1` (centres unmarked) [Example 183, N-(1-(5-(2-methoxybenzyl)octahydropyrrolo[3,4-c]pyrrole-2-carbonyl)-1H-pyrazol-4-yl)-N-methylacetamide], the inhibition at 10 µM in experiment [4] and in experiment [5] was no less than 75% throughout. Besides, the values for the inhibition at 1 µM in experiment [1] and in experiment [2] were 0 to 25% and no less than 75%, respectively.

As for `CC(=O)Nc1cnn(C(=O)N2CCN(Cc3ccc(C(F)(F)F)cc3N3CCCC3)CC2)c1` [Example 217, N-(1-(4-(2-(pyrrolidin-1-yl)-4-(trifluoromethyl)benzyl)piperazine-1-carbonyl)-1H-pyrazol-4-yl)acetamide], in experiment [1], the 50% inhibitory concentration (IC50) is no more than 100 nM and the inhibition at 1 µM is no less than 75%. For the same compound, in experiment [2], the IC50 fell in the range of 1000 to 10000 nM and the inhibition at 1 µM is 25 to 50%. Moreover, the inhibition at 5 mg/kg in experiment [3] was no less than 75%.

For the compound `CC(=O)N(C)c1cnn(C(=O)N2CC3(CCN(Cc4ccc(-c5ccccc5)cc4C)CC3)C2)c1` [Example 222, N-methyl-N-(1-(7-((3-methyl-[1,1′-biphenyl]-4-yl)methyl)-2,7-diazaspiro[3.5]nonane-2-carbonyl)-1H-pyrazol-4-yl)acetamide], the inhibition at 10 µM in experiment [4] is no less than 75%; in experiment [5], 50 to 75%. For the same compound, the inhibition at 1 µM was 0 to 25% in experiment [1] and no less than 75% in experiment [2].

Take `CC(=O)N(C)c1cnn(C(=O)N2CC3CN(Cc4ccc(CN5CCOCC5)cc4)CC3C2)c1` (centres unmarked) [Example 225, N-methyl-N-(1-(5-(4-(morpholinomethyl)benzyl)octahydropyrrolo[3,4-c]pyrrole-2-carbonyl)-1H-pyrazol-4-yl)acetamide]: the inhibition at 10 µM in experiment [4] and in experiment [5] was no less than 75% in each case. Besides, the inhibition at 1 µM in experiment [1] was 0 to 25%; in experiment [2] it was 25 to 50%.

Regarding `CC(=O)N(C)c1cnn(C(=O)N2CCC3(CCN(Cc4ccc(CN5CCOCC5)cc4)C3)C2)c1` (centres unmarked) [Example 231, N-methyl-N-(1-(7-(4-(morpholinomethyl)benzyl)-2,7-diazaspiro[4.4]nonane-2-carbonyl)-1H-pyrazol-4-yl)acetamide], the inhibition at 10 µM is no less than 75% in experiment [4] and 25 to 50% in experiment [5]. The inhibition at 1 µM in experiment [1] and in experiment [2] was 0 to 25% each time.
